According to US5750354A, “Lipoxin transport system and uses therefor” (priority 1994, dated 1998):
“Also recorded” adds a separate entry of the source.

Key:
[1] = target: T1, specific lipoxin receptors (Homo sapiens, UniProt P25090); details: 4° C.; cited from earlier work
T1 sequence (P25090 1-351): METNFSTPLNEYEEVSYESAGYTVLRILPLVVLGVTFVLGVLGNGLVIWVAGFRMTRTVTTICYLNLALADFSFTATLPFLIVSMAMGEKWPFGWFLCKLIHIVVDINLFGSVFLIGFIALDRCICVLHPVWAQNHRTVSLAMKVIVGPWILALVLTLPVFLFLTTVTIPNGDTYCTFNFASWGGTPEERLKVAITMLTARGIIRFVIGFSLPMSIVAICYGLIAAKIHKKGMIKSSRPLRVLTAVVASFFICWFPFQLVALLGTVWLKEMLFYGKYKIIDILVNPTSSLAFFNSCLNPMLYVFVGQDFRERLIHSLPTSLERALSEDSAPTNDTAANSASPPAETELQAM

[2] = system: renal vasoconstrictor actions of LTD4; details: prior exposure, nM; cited from earlier work
[3] = system: human neutrophils; details: not told
[4] = system: LTD4- and LTB4-mediated inflammation; details: in vivo; cited from earlier work
[5] = system: myeloid bone marrow colony formation; details: 10^-10 M range, with suboptimal GM-CSF; cited from earlier work
[6] = RP-HPLC analysis of LXA4 integrity after exposure to inhibitors; format: physicochemical; details: 30 min of exposure
[7] = system: asthmatic patients; details: micromolar amounts via inhalation; cited from earlier work
[8] = system: polymorphonuclear leukocytes; details: cited from earlier work
[9] = system: retinoic acid-induced HL-60 cells; experiment: [3H]LXA4 uptake into retinoic acid-induced HL-60 cells; format: cell-based, human; details: Medium, 5 nM, 1-30 min
Procedure: (§1) HL-60 Cells: HL-60 cells were seeded into RPMI medium supplemented with 100 U/ml penicillin, 100 μg/ml streptomycin, and 10% fetal calf serum (Hyclone, Logan, Utah) and grown at 37° C. in 250 ml flasks in a 5% CO2 /95% air atmosphere. Cells were induced to differentiate toward a neutrophil-like phenotype by exposure to 1 μM retinoic acid for 5 days.
(§2) Human red cells, lymphocytes, and platelets were isolated from peripheral blood as described under Methods. Undifferentiated HL-60 cells were grown in culture according to standard protocols. Differentiated HL-60 cells were obtained by exposing cells to 1 μM retinoic acid for 5 days in culture. After harvesting and isolation, all cells were kept in the standard medium for 1 hour at 37° C. prior to assay. […] Results represent the means±SEM of three-four separate experiments for each cell type.

[10] = system: undifferentiated HL-60 cells; experiment: [3H]LXA4 uptake into undifferentiated HL-60 cells; format: cell-based, human; details: Medium, 5 nM, 1-30 min
Procedure: as §1, §2

[11] = system: unstimulated human platelets; experiment: [3H]LXA4 uptake into platelets; format: cell-based; details: Medium, 5 nM, 1-30 min
Procedure: Platelets: Platelets were purified to homogeneity from acid citrate dextrose-treated blood according to established protocols (Romano, M. and Serhan, C. N. (1992) Biochemistry 31:8269-8277).
as §2

[12] = nM levels; cited from earlier work
[13] = system: lipoxin transport system; experiment: [3H]LXA4 influx into human neutrophils (unidirectional tracer flux); details: combined data: Control, 0.4 mM SITS, 1 mM probenecid, Na+-free medium, high K+ medium; 5 nM LXA4
[14] = system: protein kinase C (PKC); details: about 10 nM; cited from earlier work
[15] = system: neutrophils; details: 37° C.; cited from earlier work
[16] = system: unstimulated human lymphocytes; experiment: [3H]LXA4 uptake into lymphocytes; format: cell-based; details: Medium, 5 nM, 1-30 min
Procedure: Lymphocvtes: The lymphocyte-rich interface layer was taken at the Ficoll-Hypaque gradient step of the neutrophil purification procedure. Platelets were removed by slow-speed centrifugation (see below) and contaminating monocytes and neutrophils by adherence to plastic Petri dishes for 1 hour at 37 ° C.
as §2

[17] = system: unstimulated human erythrocytes; experiment: [3H]LXA4 uptake into erythrocytes; format: cell-based; details: Medium, 5 nM, 1-30 min
Procedure: Red Blood Cells (RBC): RBC were obtained directly from the heparinized blood of normal human donors. During repeated (four) washing steps, the uppermost portion of the cell pellets was aspirated and discarded to remove residual minor contamination of buffy coat cells.
as §2

[18] = system: neutrophils; experiment: Phagocytosis of opsonized sheep red blood cells by neutrophils; format: cell-based, human
Procedure: Neutrophils were prepared as described in the general methodology and suspended at a concentration of 10×10^6 -15×10^6 cells/ml in Hepes Hanks buffer, pH 7.4, supplemented with 1 mg/ml BSA, 1 mg/ml glucose, 0.5 mM MgCl2 and 1.0 mM CaCl2 --2H2 O.
The sheep red blood cells (SRBCs) were prepared by washing the cells with 1× veronal-buffered saline (VBS), incubating the cells with a 1:500 dilution of rabbit anti-SRBC IgG antibody at 37° C. for 15 minutes, centrifuging the cells at 2000 rpm for 5 minutes at 4° C. and washing the cells twice with 1×VBS. SRBCs were resuspended at a final concentration of 10×10^8 cells/ml.
Each component was pipetted separately to the bottom of a 12×75 mm test tube to allow thorough mixing of the components.
To each 100 μl mixture was added 15 μl of opsonized SRBCs to start the phagocytosis reaction. The tubes were vortexed and placed in a 37° C. incubator for 30 minutes. After 30 minutes, the tubes were placed on ice to stop the reaction.
Non-phagocytosed SRBCs were lysed by adding 1.0 ml of 0.83% NH4 Cl to each tube, with shaking, and centrifuging the tubes quickly at 1500 rpm for 3 minutes. The supernatant was removed and the pellets were resuspended in 30 gl of PBS. The 30 μl solution was placed onto a polylysine-coated microscope slide and after 15 minutes the excess solution was removed from the slide. The cells on the slide were fixed with 1% glutaraldehyde for 5 minutes and then the excess glutaraldehyde was removed. The cells were stained with Giemsa Stain by immersing the slide in the stain for 25 minutes, rinsing the slide with water and allowing the slide to dry overnight.
The slides were examined with a light microscope at 100×power. SRBCs which were phagocytosed by neutrophils were visible as yellow cells within blue-stained neutrophils. The results for each reaction were expressed as a phagocytic index, representing the number of SRBCs phagocytosed per 100 neutrophils. […]

[19] = target: T1, specific lipoxin receptors; experiment: [3H]LXA4 ligand binding to human neutrophils
Procedure: Influx rates were calculated by fitting the data points to a single exponential equation (Eq. 1). Results have been taken from three experiments based upon duplicate determinations. […] Specific binding was taken as the difference between total and non-specific binding. […] Results are from three separate experiments, each performed in triplicate.

[20] = cited from earlier work
[21] = system: human mononuclear cell-colony formation; details: cited from earlier work

## CCCCC[C@H](O)/C=C/C=C\C=C\C=C\[C@@H](O)[C@@H](O)CCCC(=O)O [LXA4, (5S,6R,15S)-trihydroxy-7,9,13-trans-11-cis-eicosatetraenoic acid]
[1]
  binding sites: ~ 1830 sites/cell
  half-time for binding: .15 s
[2]
  renal vasoconstriction by LTD4: blocks renal vasoconstrictor actions
[3]
  efflux final value (relative cell content): 0.54±0.03
[4]
  leukotriene-mediated inflammation: inhibits
[5]
  cell proliferation / colony formation: stimulates cell proliferation
[6]
  integrity after exposure to DISA, PCP, UK-5099, and mersalyl: preservation of the integrity
[7]
  bronchoconstriction: blocks bronchoconstriction
[8]
  chemotaxis: inhibits chemotaxis
[9]
  [3H]LXA4 Uptake Rate: 0.73 ± 0.15 fmol/10^6 cells/min
[10]
  [3H]LXA4 Uptake Rate: 0.11 ± 0.02 fmol/10^6 cells/min
[11]
  [3H]LXA4 Uptake Rate: -0.0003 ± 0.0015 fmol/10^6 cells/min
[12]
  vasodilation: elicit prompt vasodilation
[13]
  final [3H]LXA4 uptake (combined data): 7.26±0.26 fmol/10^6 cells
  initial [3H]LXA4 influx rate (combined data): 0.57±0.09 fmol/10^6 cells/min
[14]
  effect on PKC activity: enhance
[15]
  metabolic transformation in neutrophils: not subject to metabolic transformation
[16]
  [3H]LXA4 Uptake Rate: 0.0019 ± 0.0048 fmol/10^6 cells/min
[17]
  [3H]LXA4 Uptake Rate: 0.0014 ± 0.0006 fmol/10^6 cells/min
[18]; 100 nM or 1000 nM, pH 7.4, 37° C., 30 minutes
  effect on neutrophil phagocytosis, phagocytic index: more effective at inhibiting phagocytosis than LXB4; also recorded: inhibit phagocytosis
[18]; extracellular pH 6.4, 7.4, 8.4
  pH-dependence of inhibition of neutrophil phagocytosis: increases as the extracellular pH is decreased
[19]; Medium, 0.3 nM [3H]LXA4, 4° C., 5 min, no unlabeled LXA4
  [3H]LXA4 Binding, total: 1.05 ± 0.03 fmol/10^6 cells
[19]; Medium, + unlabeled LXA4 0.3 μM
  [3H]LXA4 Binding, non-specific: 0.40 ± 0.08 fmol/10^6 cells
[19]; displaced by 1,000-fold excess unlabeled LXA4
  specific binding as share of total binding: ~ 70%
[19]; pHo 6.40, + unlabeled LXA4 0.3 μM
  [3H]LXA4 Binding, non-specific: 0.39 ± 0.04 fmol/10^6 cells
[19]; pHo 6.40, no unlabeled LXA4
  [3H]LXA4 Binding, total: 1.02 ± 0.09 fmol/10^6 cells
[19]; pHo 8.40, + unlabeled LXA4 0.3 μM
  [3H]LXA4 Binding, non-specific: 0.42 ± 0.09 fmol/10^6 cells
[19]; pHo 8.40, no unlabeled LXA4
  [3H]LXA4 Binding, total: 1.19 ± 0.12 fmol/10^6 cells
[20]
  pK' of the carboxylic acid moiety: ~ 3.8
[21]
  mononuclear cell-colony formation: stimulates
